From US6620828B2, “Thiazole compounds and pharmaceutical compositions for inhibiting protein kinases and methods for their use” (Agouron Pharmaceuticals, Inc., priority 1999, dated 2003)
pKi: −log10 of the molar value. Counter-ions that a name gives are not always drawn.

biological target: T1, unphosphorylated VEGF-R2Δ50 (FLVK) (Homo sapiens, UniProt P35968, DEL940-989/E990V); assay: VEGF-R2 coupled spectrophotometric assay, unphosphorylated enzyme (FLVK); assay type: biochemical; details: Table 3; at 50 nM
T1 construct: VEGF-R2Δ50 contains residues 806-939 and 990-1171; made in house; host or cells: baculovirus/insect cells
Text: VEGF-R2 Construct for Assay: This construct determines the ability of a test compound to inhibit tyrosine kinase activity. A construct (VEGF-R2Δ50) of the cytosolic domain of human vascular endothelial growth factor receptor 2 (VEGF-R2) lacking the 50 central residues of the 68 residues of the kinase insert domain was expressed in a baculovirus/insect cell system. Of the 1356 residues of full-length VEGF-R2, VEGF-R2Δ50 contains residues 806-939 and 990-1171, and also one point mutation (E990V) within the kinase insert domain relative to wild-type VEGF-R2. Autophosphorylation of the purified construct was performed by incubation of the enzyme at a concentration of 4 μM in the presence of 3 mM ATP and 40 mM MgCl2 in 100 mM Hepes, pH 7.5, containing 5% glycerol and 5 mM DTT, at 4° C. for 2 h. […] See Parast et al., Biochemistry, 37, 16788-16801 (1998).
The production of ADP from ATP that accompanies phosphoryl transfer was coupled to oxidation of NADH using phosphoenolpyruvate (PEP) and a system having pyruvate kinase (PK) and lactic dehydrogenase (LDH). The oxidation of NADH was monitored by following the decrease of absorbance at 340 nm (e340=6.22 cm^−1 mM^−1) using a Beckman DU 650 spectrophotometer. Assay conditions for phosphorylated VEGF-R2Δ50 (indicated as FLVK-P in the tables below) were the following: 1 mM PEP; 250 μM NADH; 50 units of LDH/mL; 20 units of PK/mL; 5 mM DTT; 5.1 mM poly(E4Y1); 1 mM ATP; and 25 mM MgCl2 in 200 mM Hepes, pH 7.5. Assay conditions for unphosphorylated VEGF-R2Δ50 (indicated as FLVK in the tables) were the following: 1 mM PEP; 250 μM NADH; 50 units of LDH/mL; 20 units of PK/mL; 5 mM DTT; 20 mM poly(E4Y1); 3 mM ATP; and 60 mM MgCl2 and 2 mM MnCl2 in 200 mM Hepes, pH 7.5. Assays were initiated with 5 to 40 nM of enzyme. Ki values were determined by measuring enzyme activity in the presence of varying concentrations of test compounds. The data were analyzed using Enzyme Kinetic and Kaleidagraph software.

T1 sequence (P35968 with tags, fused parts or gaps DEL940-989/E990V limits assumed): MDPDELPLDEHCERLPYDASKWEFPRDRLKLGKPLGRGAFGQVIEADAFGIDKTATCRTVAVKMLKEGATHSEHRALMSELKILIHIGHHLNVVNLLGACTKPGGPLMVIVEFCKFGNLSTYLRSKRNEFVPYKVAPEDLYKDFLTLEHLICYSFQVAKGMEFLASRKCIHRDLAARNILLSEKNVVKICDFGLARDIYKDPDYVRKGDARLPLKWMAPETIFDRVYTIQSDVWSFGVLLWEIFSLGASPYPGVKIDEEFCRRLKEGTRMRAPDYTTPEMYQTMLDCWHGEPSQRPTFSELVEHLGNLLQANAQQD

SMILES | inhibition at 0.05 µM
COc1cc(F)c(-c2noc(-c3sc(Nc4cc(OC)c(OC)c(OC)c4)nc3N)n2)cc1NC(=O)OC(C)(C)C [B(41)] | 0%
COC(=O)c1cccc(-c2noc(-c3sc(Nc4cc(OC)c(OC)c(OC)c4)nc3N)n2)c1 [B(42)] | 12%
COc1cc(Nc2nc(N)c(-c3nc(-c4cccc(C(=O)O)c4)no3)s2)cc(OC)c1OC [B(43)] | 11%
COc1cc(Nc2nc(N)c(-c3nc(-c4cc(N)ccc4F)no3)s2)cc(OC)c1OC [C(4), 3-[3-amino-6-fluorophenyl]-5-[2-[(3,4,5-trimethoxyphenyl)amino]-4-amino-5-thiazolyl]-1,2,4-oxadiazole] | 3%
COc1cc(F)c(-c2noc(-c3sc(Nc4cc(OC)c(OC)c(OC)c4)nc3N)n2)cc1N [C(5), 3-[2-fluoro-4-methoxy-5-aminophenyl]-5-[2-[(3,4,5-trimethoxyphenyl)amino]-4-amino-5-thiazolyl]-1,2,4-oxadiazole] | 15%

Further lines, results first:

inhibition at 0.05 µM | SMILES
5% | Cc1cccc(C(=O)Nc2cccc(-c3noc(-c4sc(NS(C)(=O)=O)nc4N)n3)c2)c1 [F(15), N-{3-[5-(4-Amino-2-methanesulfonylamino-thiazol-5-yl)-[1,2,4]oxadiazol-3-yl]-phenyl}-3-methyl-benzamide]
11% | COc1cccc(C(=O)Nc2cc(-c3csc(-c4sc(NC(=O)NCc5ccccn5)nc4N)n3)c(F)cc2F)c1 [O(16), N-{5-[4′-Amino-2′-(3-pyridin-2-ylmethyl-ureido)-[2,5′]bithiazolyl-4-yl]-2,4-difluoro-phenyl}-3-methoxy-benzamide]
29% | COc1cccc(C(=O)Nc2cc(-c3csc(-c4sc(NC(=O)NC[C@@H]5CCCO5)nc4N)n3)c(F)cc2F)c1 [O(23), N-[5-(4′-Amino-2′-{3-[(S)-1-(tetrahydro-furan-2-yl)methyl]-ureido}-[2,5′]bithiazolyl-4-yl)-2,4-difluoro-phenyl]-3-methoxy-benzamide]
22% | COc1cccc(C(=O)Nc2cc(-c3csc(-c4sc(NC(=O)NC[C@H]5CCCO5)nc4N)n3)c(F)cc2F)c1 [O(24), N-[5-(4′-Amino-2′-{3-[(R)-1-(tetrahydro-furan-2-yl)methyl]-ureido}-[2,5′]bithiazolyl-4-yl)-2,4-difluoro-phenyl]-3-methoxy-benzamide]
28% | COc1cccc(C(=O)Nc2cc(-c3csc(-c4sc(NC(=O)NCC5CCCCC5)nc4N)n3)c(F)cc2F)c1 [O(25), N-{5-[4′-Amino-2′-(3-cyclohexylmethyl-ureido)-[2,5′]bithiazolyl-4-yl]-2,4-difluoro-phenyl}-3-methoxy-benzamide]
39% | COc1cccc(C(=O)Nc2cc(-c3csc(-c4sc(NC(=O)NCCc5ccncc5)nc4N)n3)c(F)cc2F)c1 [O(30), N-(5-{4′-Amino-2′-[3-(2-pyridin-4-yl-ethyl)-ureido]-[2,5′]bithiazolyl-4-yl}-2,4-difluoro-phenyl)-3-methoxy-benzamide]

same assay, conditions: Table 3; concentration not given

SMILES | FLVK % inhibition
COc1cccc(C(=O)Nc2cc(-c3noc(-c4sc(Nc5cccnc5)nc4N)n3)c(F)cc2F)c1 [B(20), N-(5-{5-[4-Amino-2-(pyridin-3-ylamino)-thiazol-5-yl]-[1,2,4]oxadiazol-3-yl}-2,4-difluoro-phenyl)-3-methoxy-benzamide-TFA salt] | 80%

same assay, conditions: Table 3; some entries 'Slow binder'

SMILES | pKi
Cc1ccc(NC(=O)OC(C)(C)C)cc1-c1noc(-c2sc(Nc3ccccc3)nc2N)n1 [B(23)] | 8.77
Cc1ccc(NC(=O)OC(C)(C)C)cc1-c1noc(-c2sc(Nc3ccc4nc[nH]c4c3)nc2N)n1 [B(24)] | 8.68
COc1ccc(NC(=O)OC(C)(C)C)cc1-c1noc(-c2sc(Nc3cc(OC)c(OC)c(OC)c3)nc2N)n1 [B(25)] | 7.54
CCn1nc(C)cc1C(=O)Nc1ccc(C)c(-c2noc(-c3sc(Nc4ccccc4)nc3N)n2)c1 [B(26)] | 8.55
CCn1nc(C)cc1C(=O)Nc1ccc(C)c(-c2noc(-c3sc(Nc4ccc(N5CCN(C)CC5)nc4)nc3N)n2)c1 [B(27)] | 9.52
COc1cccc(C(=O)Nc2cc(-c3noc(-c4sc(Nc5ccc(N6CCN(C)CC6)nc5)nc4N)n3)c(C)cc2Cl)c1 [B(28)] | 8.52
Cc1ccc(NC(=O)C(O)CC(C)C)cc1-c1noc(-c2sc(Nc3ccc(N4CCN(C)CC4)nc3)nc2N)n1 (centres unmarked) [B(29)] | 9.05
C/C=C(/C)C(=O)Nc1ccc(C)c(-c2noc(-c3sc(Nc4ccc(N5CCN(C)CC5)nc4)nc3N)n2)c1 [B(31)] | 8.29
COc1cc(Nc2nc(N)c(-c3nc(-c4cccc(NC(=O)c5cccc(C(N)=O)c5)c4)no3)s2)cc(OC)c1OC [D(71)] | 8.39

More lines, now with the values ahead:

pKi | SMILES
8.59 | COc1cc(Nc2nc(N)c(-c3nc(-c4cccc(NC(=O)c5ccc(CN6CCN(C)CC6)cc5)c4)no3)s2)cc(OC)c1OC [D(77)]
9.55 | COc1cccc(C(=O)Nc2cc(-c3noc(-c4sc(NC(=O)NCCN5CCOCC5)nc4N)n3)c(F)cc2F)c1 [O(1), N-[5-(5-{4-Amino-2-[3-(2-morpholin-4-yl-ethyl)-ureido]-thiazol-5-yl}-[1,2,4]oxadiazol-3-yl)-2,4-difluoro-phenyl]-3-methoxy-benzamide]
9.24 | COc1cccc(C(=O)Nc2cc(-c3noc(-c4sc(NC(=O)NCC(N)=O)nc4N)n3)c(F)cc2F)c1 [O(3), N-(5-{5-[4-Amino-2-(3-carbamoylmethyl-ureido)-thiazol-5-yl]-[1,2,4]oxadiazol-3-yl}-2,4-difluoro-phenyl)-3-methoxy-benzamide]
9.66 | COc1cccc(C(=O)Nc2cc(-c3noc(-c4sc(NC(=O)NCC5CCCO5)nc4N)n3)c(F)cc2F)c1 (centres unmarked) [O(5), N-[5-(5-{4-Amino-2-[3-(tetrahydro-furan-2-ylmethyl)-ureido]-thiazol-5-yl}-[1,2,4]oxadiazol-3-yl)-2,4-difluoro-phenyl]-3-methoxy-benzamide]
9.82 | COc1cccc(C(=O)Nc2cc(-c3noc(-c4sc(NC(=O)NCCOCCO)nc4N)n3)c(F)cc2F)c1 [O(6), N-{5-[5-(4-Amino-2-{3-[2-(2-hydroxy-ethoxy)-ethyl]-ureido}-thiazol-5-yl)-[1,2,4]oxadiazol-3-yl]-2,4-difluoro-phenyl}-3-methoxy-benzamide]
9.68 | COc1cccc(C(=O)Nc2cc(-c3noc(-c4sc(NC(=O)NCc5ccccn5)nc4N)n3)c(F)cc2F)c1 [O(8), N-(5-{5-[4-Amino-2-(3-pyridin-2-ylmethyl-ureido)-thiazol-5-yl]-[1,2,4]oxadiazol-3-yl}-2,4-difluoro-phenyl)-3-methoxy-benzamide]
8.82 | CC[C@@H](CO)NC(=O)Nc1nc(N)c(-c2nc(-c3cc(NC(=O)c4cccc(OC)c4)c(F)cc3F)cs2)s1 [O(22), N-(5-{4′-Amino-2′-[3-((S)-1-hydroxymethyl-propyl)-ureido]-[2,5′]bithiazolyl-4-yl}-2,4-difluoro-phenyl)-3-methoxy-benzamide]
8.85 | COc1cccc(C(=O)Nc2cc(-c3csc(-c4sc(NC(=O)NCCN5CCOCC5)nc4N)n3)c(F)cc2F)c1 [O(26), N-(5-{4′-Amino-2′-[3-(2-morpholin-4-yl-ethyl)-ureido]-[2,5′]bithiazolyl-4-yl}-2,4-difluoro-phenyl)-3-methoxy-benzamide]
8.77 | COc1cccc(C(=O)Nc2cc(-c3csc(-c4sc(NC(=O)NCCN5CCCC5)nc4N)n3)c(F)cc2F)c1 [O(27), N-(5-{4′-Amino-2′-[3-(2-pyrrolidin-1-yl-ethyl)-ureido]-[2,5′]bithiazolyl-4-yl}-2,4-difluoro-phenyl)-3-methoxy-benzamide]
9.54 | COc1cccc(C(=O)Nc2cc(-c3csc(-c4sc(NC(=O)NCCOCCO)nc4N)n3)c(F)cc2F)c1 [O(28), N-[5-(4′-Amino-2′-{3-[2-(2-hydroxy-ethoxy)-ethyl]-ureido}-[2,5′]bithiazolyl-4-yl)-2,4-difluoro-phenyl]-3-methoxy-benzamide]
9.64 | CNC(=O)Nc1nc(N)c(-c2nc(-c3cccc(NC(=O)c4cccc(OC)c4)c3)c(C)s2)s1 [O(31), N-{3-[4′-Amino-5-methyl-2′-(3-methyl-ureido)-[2,5′]bithiazolyl-4-yl]-phenyl}-3-methoxy-benzamide]
